Test system: HBV (2.2.15 cells)
Test: Antiviral activity in 2.2.15 cells: reduction of viral product accumulation (qPCR of lysates, HBsAg or HBeAg ELISA)
Assay type: cell-based, hepatitis B virus (HBV)
Settings: Hepatitis B virus, 120 h, day 5 post treatment, 50% reduction of viral product accumulation in lysates or supernatants vs no drug controls, readout (qPCR, HBsAg, HBeAg) not specified
Description: 2.2.15 cells are passaged upon attaining confluency in DMEM/F12 media in the presence of 10% FBS, Penn/Strep, and 250 ug/mL G418. Novel compounds are 5 fold serially diluted in DMSO and added to 96 well plates containing 35,000 cells/well at a 1:200 dilution so that the final concentration of DMSO is 0.5%. On day 5, post treatment cell lysates and supernatants are harvested for analysis.
Cells are lysed using Agilent Sidestep Lysis buffer, diluted 1:100 and quantified via quantitative real time PCR. Commercially available ELISA kits are used to quantitate the viral proteins HBsAg (Alpco) or HBeAg (US Biological) by following the manufacturer's recommended protocol after diluting samples to match the linear range of their respective assays. Irrespective of readout, compound concentrations that reduce viral product accumulation in the cell lysates or supernatants by 50% relative to no drug controls (EC50) are reported; EC50 ranges are as follows: A<0.1 μM; B 0.1-1 μM; C>1 μM.

SMILES | EC50
CC(C)[C@@H]1Cc2c(cc(-c3cnsc3)c3c2CCO3)-c2cc(=O)c(C(=O)O)cn21 [Example 103, (S)-5-isopropyl-12-(isothiazol-4-yl)-9-oxo-2,3,4,9-tetrahydro-5H-furo[3,2-f]pyrido[2,1-a]isoquinoline-8-carboxylic Acid] | < 100 nM
COCCCCc1cc2c(cc1N1CC(F)(F)C1)-c1cc(=O)c(C(=O)O)cn1[C@H](C(C)(C)C)C2 [Example 153, (S)-6-(tert-butyl)-10-(3,3-difluoroazetidin-1-yl)-9-(4-methoxybutyl)-2-oxo-6,7-dihydro-2H-pyrido[2,1-a]isoquinoline-3-carboxylic Acid] | < 100 nM
CC(C)[C@@H]1Cc2c(cc(-c3ccco3)c3c2CCO3)-c2cc(=O)c(C(=O)O)cn21 [Example 101, (S)-12-(furan-2-yl)-5-isopropyl-9-oxo-2,3,4,9-tetrahydro-5H-furo[3,2-f]pyrido[2,1-a]isoquinoline-8-carboxylic Acid] | < 100 nM
COCCCOc1cc2c(cc1-c1ccc(OC(F)F)cc1)-c1cc(=O)c(C(=O)O)cn1[C@H](C(C)(C)C)C2 [Example 56, (S)-6-(tert-butyl)-10-(4-(difluoromethoxy)phenyl)-9-(3-methoxypropoxy)-2-oxo-6,7-dihydro-2H-pyrido[2,1-a]isoquinoline-3-carboxylic Acid] | < 100 nM
CC(C)(C)[C@@H]1Cc2c(cc(C3CCCO3)c3c2CCO3)-c2cc(=O)c(C(=O)O)cn21 (stereo partly drawn) [Example 129, (5S)-5-(tert-butyl)-9-oxo-12-(tetrahydrofuran-2-yl)-2,3,4,9-tetrahydro-5H-furo[3,2-f]pyrido[2,1-a]isoquinoline-8-carboxylic Acid] | < 100 nM
COCCCOc1cc2c(cc1-c1ccc(OC(F)(F)F)cc1)-c1cc(=O)c(C(=O)O)cn1[C@H](C(C)(C)C)C2 [Example 37, (S)-6-(tert-butyl)-9-(3-methoxypropoxy)-2-oxo-10-(4-(trifluoromethoxy)phenyl)-6,7-dihydro-2H-pyrido[2,1-a]isoquinoline-3-carboxylic Acid] | > 1000 nM
CC(C)(C)[C@@H]1Cc2ccc(N3CC(F)(F)C3)cc2-c2cc(=O)c(C(=O)O)cn21 [Example 154, (S)-6-(tert-butyl)-10-(3,3-difluoroazetidin-1-yl)-2-oxo-6,7-dihydro-2H-pyrido[2,1-a]isoquinoline-3-carboxylic Acid] | > 1000 nM
CCn1cc(-c2cc3c(cc2OCCCOC)C[C@@H](C(C)(C)C)n2cc(C(=O)O)c(=O)cc2-3)cn1 [Example 34, (S)-6-(tert-butyl)-10-(1-ethyl-1H-pyrazol-4-yl)-9-(3-methoxypropoxy)-2-oxo-6,7-dihydro-2H-pyrido[2,1-a]isoquinoline-3-carboxylic Acid] | < 100 nM
COCCCOc1cc2c(cc1-c1cnc(OC)nc1)-c1cc(=O)c(C(=O)O)cn1[C@H](C(C)(C)C)C2 [Example 44, (S)-6-(tert-butyl)-9-(3-methoxypropoxy)-10-(2-methoxypyrimidin-5-yl)-2-oxo-6,7-dihydro-2H-pyrido[2,1-a]isoquinoline-3-carboxylic Acid] | < 100 nM
COCCCOc1cc2c(cc1N1CCC(F)(F)C1)-c1cc(=O)c(C(=O)O)cn1[C@H](C(C)(C)C)C2 [Example 54, (S)-6-(tert-butyl)-10-(3,3-difluoropyrrolidin-1-yl)-9-(3-methoxypropoxy)-2-oxo-6,7-dihydro-2H-pyrido[2,1-a]isoquinoline-3-carboxylic Acid] | 100 to 1000 nM
COCCCOc1cc2c(cc1-c1ccccc1F)-c1cc(=O)c(C(=O)O)cn1[C@H]1[C@@H]2COC1(C)C [Example 136, (3aS,12bR)-10-(2-fluorophenyl)-11-(3-methoxypropoxy)-3,3-dimethyl-7-oxo-3,3a,7,12b-tetrahydro-1H-furo[3,4-c]pyrido[2,1-a]isoquinoline-6-carboxylic Acid] | < 100 nM
CC(C)(C)[C@@H]1Cc2c(cc(N3CC(F)(F)C3)c3c2C[C@H](C(F)F)O3)-c2cc(=O)c(C(=O)O)cn21 [Example 155, (2R,5S)-5-(tert-butyl)-12-(3,3-difluoroazetidin-1-yl)-2-(difluoromethyl)-9-oxo-2,3,4,9-tetrahydro-5H-furo[3,2-f]pyrido[2,1-a]isoquinoline-8-carboxylic Acid] | > 1000 nM
CC(C)(C)[C@@H]1Cc2c(cc(-c3cnsc3)c3c2CCO3)-c2cc(=O)c(C(=O)O)cn21 [Example 73, (S)-5-(tert-butyl)-12-(isothiazol-4-yl)-9-oxo-2,3,4,9-tetrahydro-5H-furo[3,2-f]pyrido[2,1-a]isoquinoline-8-carboxylic Acid] | < 100 nM
CC1(C)Cc2c3c(cc(-c4ccoc4)c2O1)-c1cc(=O)c(C(=O)O)cn1[C@H](C(C)(C)C)C3 [Example 133, (S)-5-(tert-butyl)-12-(furan-3-yl)-2,2-dimethyl-9-oxo-2,3,4,9-tetrahydro-5H-furo[3,2-f]pyrido[2,1-a]isoquinoline-8-carboxylic acid] | 100 to 1000 nM
COCCCOc1cc2c(cc1-c1ccco1)-c1cc(=O)c(C(=O)O)cn1[C@H]1[C@@H]2COC1(C)C [Example 125, (3aS,12bR)-10-(furan-2-yl)-11-(3-methoxypropoxy)-3,3-dimethyl-7-oxo-3,3a,7,12b-tetrahydro-1H-furo[3,4-c]pyrido[2,1-a]isoquinoline-6-carboxylic Acid] | < 100 nM
CC(C)(C)[C@@H]1Cc2c(cc(N3CCCC3)c3c2CCO3)-c2cc(=O)c(C(=O)O)cn21 [Example 88, (S)-5-(tert-butyl)-9-oxo-12-(pyrrolidin-1-yl)-2,3,4,9-tetrahydro-5H-furo[3,2-f]pyrido[2,1-a]isoquinoline-8-carboxylic Acid] | < 100 nM
CC1(C)Cc2c3c(cc(-c4ccsc4)c2O1)-c1cc(=O)c(C(=O)O)cn1[C@H](C(C)(C)C)C3 [Example 149, (S)-5-(tert-butyl)-2,2-dimethyl-9-oxo-12-(thiophen-3-yl)-2,3,4,9-tetrahydro-5H-furo[3,2-f]pyrido[2,1-a]isoquinoline-8-carboxylic Acid] | > 1000 nM
COCCCOc1cc2c(cc1-c1cn(C)nc1C)-c1cc(=O)c(C(=O)O)cn1[C@H](C(C)(C)C)C2 [Example 32, (S)-6-(tert-butyl)-10-(1,3-dimethyl-1H-pyrazol-4-yl)-9-(3-methoxypropoxy)-2-oxo-6,7-dihydro-2H-pyrido[2,1-a]isoquinoline-3-carboxylic Acid] | < 100 nM
COCCCOc1cc2c(cc1-c1ccn(C)n1)-c1cc(=O)c(C(=O)O)cn1[C@H]1[C@@H]2COC1(C)C [Example 124, (3aS,12bR)-11-(3-methoxypropoxy)-3,3-dimethyl-10-(1-methyl-1H-pyrazol-3-yl)-7-oxo-3,3a,7,12b-tetrahydro-1H-furo[3,4-c]pyrido[2,1-a]isoquinoline-6-carboxylic Acid] | < 100 nM
CC(C)(C)[C@@H]1Cc2c(cc(C3COC3)c3c2CCO3)-c2cc(=O)c(C(=O)O)cn21 [Example 131, (S)-5-(tert-butyl)-12-(oxetan-3-yl)-9-oxo-2,3,4,9-tetrahydro-5H-furo[3,2-f]pyrido[2,1-a]isoquinoline-8-carboxylic Acid] | < 100 nM
CC(C)[C@@H]1Cc2c(cc(-c3ccn[nH]3)c3c2CCO3)-c2cc(=O)c(C(=O)O)cn21 [Example 106, (S)-5-isopropyl-9-oxo-12-(1H-pyrazol-5-yl)-2,3,4,9-tetrahydro-5H-furo[3,2-f]pyrido[2,1-a]isoquinoline-8-carboxylic Acid] | < 100 nM
CC(C)[C@@H]1Cc2c(cc(-c3cnco3)c3c2CCO3)-c2cc(=O)c(C(=O)O)cn21 [Example 91, (S)-5-isopropyl-12-(oxazol-5-yl)-9-oxo-2,3,4,9-tetrahydro-5H-furo[3,2-f]pyrido[2,1-a]isoquinoline-8-carboxylic Acid] | < 100 nM
COCCCOc1cc2c(cc1N1CCC1)-c1cc(=O)c(C(=O)O)cn1[C@H](C(C)(C)C)C2 [Example 55, (S)-10-(azetidin-1-yl)-6-(tert-butyl)-9-(3-methoxypropoxy)-2-oxo-6,7-dihydro-2H-pyrido[2,1-a]isoquinoline-3-carboxylic Acid] | < 100 nM
COCCCOc1cc2c(cc1-c1ccc(OC3CC3)cc1)-c1cc(=O)c(C(=O)O)cn1[C@H](C(C)(C)C)C2 [Example 40, (S)-6-(tert-butyl)-10-(4-cyclopropoxyphenyl)-9-(3-methoxypropoxy)-2-oxo-6,7-dihydro-2H-pyrido[2,1-a]isoquinoline-3-carboxylic Acid] | > 1000 nM
COCCCOc1cc2c(cc1C1=COCCC1)-c1cc(=O)c(C(=O)O)cn1[C@H](C(C)(C)C)C2 [Example 42, (S)-6-(tert-butyl)-10-(3,4-dihydro-2H-pyran-5-yl)-9-(3-methoxypropoxy)-2-oxo-6,7-dihydro-2H-pyrido[2,1-a]isoquinoline-3-carboxylic Acid] | < 100 nM
CC(C)[C@@H]1Cc2c(cc(-c3cccnc3)c3c2CCO3)-c2cc(=O)c(C(=O)O)cn21 [Example 105, (S)-5-isopropyl-9-oxo-12-(pyridin-3-yl)-2,3,4,9-tetrahydro-5H-furo[3,2-f]pyrido[2,1-a]isoquinoline-8-carboxylic Acid] | < 100 nM
CC1(C)Cc2c3c(cc(-c4cccs4)c2O1)-c1cc(=O)c(C(=O)O)cn1[C@H](C(C)(C)C)C3 [Example 152, (S)-5-(tert-butyl)-2,2-dimethyl-9-oxo-12-(thiophen-2-yl)-2,3,4,9-tetrahydro-5H-furo[3,2-f]pyrido[2,1-a]isoquinoline-8-carboxylic Acid] | > 1000 nM

— patent US11058678B2 (Enanta Pharmaceuticals, Inc., priority 2018, dated 2021)
